According to US20120029016A1, “Indoles Useful in the Treatment of Inflammation” (BIOLIPOX AB, priority 2008, published 2012):

How the values were obtained:
[1] = target: T1, Recombinant human LTC4 synthase (Homo sapiens, UniProt Q16873); experiment: In vitro assay Method B: LTC4 synthase, LTA4 to LTC4, HTRF detection; format: biochemical; conditions: total concentration of title compound 10 μM, read-out: % inh. of LTC4 synthase
T1 construct: made in house; host or cells: Pichia pastoris ('Piccia pastoralis' [sic])
T1 sequence (Q16873 1-150): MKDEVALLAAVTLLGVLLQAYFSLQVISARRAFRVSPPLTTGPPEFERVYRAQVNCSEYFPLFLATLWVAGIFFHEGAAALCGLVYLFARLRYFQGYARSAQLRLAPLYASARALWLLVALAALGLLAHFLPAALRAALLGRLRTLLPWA
Procedure: In the assay, LTC4 synthase catalyses the reaction where the substrate LTA4 is converted to LTC4. Recombinant human LTC4 synthase is expressed in Piccia pastoralis and the purified enzyme is dissolved in 25 mM Tris-buffer pH 7.8 and stored at −20° C. The assay is performed in phosphate buffered saline (PBS) pH 7.4, supplemented with 5 mM glutathione (GSH). The assay is performed at rt in 384-well plates. Analysis of the formed LTC4 is performed using costume made homogenous time-resolved fluorescence (HTRF) detection (Cisbio).
(§1) The following is added chronologically to each well: • 1. 50 μL assay buffer, PBS with 5 mM GSH. • 2. 0.5 μL inhibitor in DMSO. • 3. 2 μl LTC4 synthase in PBS. The total protein concentration in this solution is 0.025 mg/ml. Incubation of the plate at rt for 10 min. • 4. 1-1.5 μL LTA4 (final conc. 2.5 μM). Incubation of the plate at rt for 1 min. 10 μL of the incubation mixture is analysed using HTRF detection.

[2] = tested on: cysteinyl leukotrienes concentration in the peritoneal lavage; experiment: Mouse peritoneal inflammation model (zymosan ip), cysteinyl leukotrienes in peritoneal lavage by EIA; format: in vivo, Male BALB/c mice; conditions: 0.5 h, 5 min before zymosan, lavage 30 min after zymosan, read-out: %-inhibition of cysteinyl leukotrienes concentration vs vehicle treated mice; for inhibition in vivo at 10 mg/kg: 10 mg/kg ip; for inhibition in vivo at 3 mg/kg: 3 mg/kg ip
Procedure: The in vivo efficacy of leukotriene biosynthesis inhibitors was assed by using a model of peritoneal inflammation. Male BALB/c mice (weighing 20-25 grams) received an intraperitoneal injection (ip) of 0.5 ml zymosan dissolved in phosphate buffer saline (PBS) (pH 7.5, 1 mg/mL). 5 Minutes before the zymosan injection compounds (1-10 mg/kg) or vehicle were administered ip (10 mL/kg). 30 min after the zymosan injection the mice were anaesthetized and the peritoneal cavity was flushed with 4 mL PBS. The peritoneal lavage was centrifuged at 6000 rcf for 5 minutes and the cysteinyl leukotrienes concentration in the supernatant was determined by EIA. The cysteinyl leukotrienes concentration in the peritoneal lavage from compound treated mice was compared to vehicle treated mice and the % inhibition was calculated.

[3] = target: T1, Recombinant human LTC4 synthase; experiment: In vitro assay Method A: LTC4 synthase, LTA4 methyl ester to LTC4 methyl ester, HPLC; format: biochemical; conditions: total concentration of title compound 10 μM, read-out: % inh. of LTC4 synthase
Procedure: In the assay, LTC4 synthase catalyses the reaction where the substrate LTA4 methyl ester is converted to the corresponding LTC4 methyl ester. Recombinant human LTC4 synthase is expressed in Piccia pastoralis and the purified enzyme is dissolved in 25 mM Tris-buffer pH 7.8 and stored at −20° C. The assay is performed in phosphate buffered saline (PBS) pH 7.4, supplemented with 5 mM glutathione (GSH). The reaction is terminated by addition of MeCN/MeOH/acetic acid (50/50/1). The assay is performed at rt in 96-well plates. Analysis of the formed LTC4 methyl ester is performed with reversed phase HPLC (Waters 2795 utilizing an Onyx Monolithic C18 column). The mobile phase consists of MeCN/MeOH/H2O (32.5/30/37.5) with 1% acetic acid, pH adjusted with NH3 to 5.6, and absorbance measured at 280 nm with a Waters 2487 UV-detector.
as §1, with “2 μL” for “2 μl”, “0.025 mg/mL.” for “0.025 mg/ml.”, “LTA4 methyl ester” for “LTA4”, “conc. 10” for “conc. 2.5”, “min. • 5. 50 μL stop solution. 80” for “min. 10”, “analysed with HPLC.” for “analysed using HTRF detection.”

SMILES	inhibition at 10 µM [1]	inhibition at 10 µM [3]	inhibition in vivo at 10 mg/kg [2]	inhibition in vivo at 3 mg/kg [2]	inhibition in vivo at 1 mg/kg ([2]; 1 mg/kg ip)
CC(C)Oc1ccc(Oc2ccc3c(c2)c(C(=O)O)c(CC(=O)O)n3-c2ccc(OCc3ccc4ccccc4n3)cc2)cc1 [1:10, 2-Carboxymethyl-1-5-(4-isopropoxyphenoxy)-[4-(2-quinolinylmethoxy)-phenyl]indole-3-carboxylic acid]	–	98%	–	–	–
COc1ccc(COc2ccc(-n3c(CC(=O)O)c(C(=O)O)c4cc(Oc5ccc(OC(C)C)cc5)ccc43)cc2)cc1 [Example 1:5, 2-Carboxymethyl-1-5-(4-isopropoxyphenoxy)-[4-(4-methoxybenzyloxy)-phenyl]indole-3-carboxylic acid]	97%	–	92%	–	–
CC(C)Oc1ccc(Oc2ccc3c(c2)c(C(=O)O)c(CC(=O)O)n3-c2ccc(OCc3ccccn3)cc2)cc1 [Example 1:9, 2-Carboxymethyl-1-5-(4-isopropoxyphenoxy)-[4-(2-pyridinylmethoxy)-phenyl]indole-3-carboxylic acid]	98%	–	–	97%	–
CCCCCCCCOc1ccc(-n2c(CC(=O)O)c(C(=O)O)c3cc(Oc4ccc(OC(C)C)cc4)ccc32)cc1 [Example 5:2, 2-Carboxymethyl-1-(4-octyloxyphenyl)-5-(4-isopropoxyphenoxy)indole-3-carboxylic acid]	97%	–	–	94%	–
CC(C)Oc1ccc(Oc2ccc3c(c2)c(C(=O)O)c(CC(=O)O)n3-c2ccc(OCc3ccccc3)cc2)cc1 [Example 1:1, 1-(4-Benzyloxyphenyl)-2-carboxymethyl-5-(4-isopropoxyphenoxy)indole-3-carboxylic acid]	99%	–	100%	92%	78%

Now from value to molecule, other results behind:

inhibition at 10 µM [1]	inhibition at 10 µM [3]	SMILES	inhibition in vivo at 10 mg/kg [2]	inhibition in vivo at 3 mg/kg [2]	inhibition in vivo at 1 mg/kg ([2]; 1 mg/kg ip)
98%	–	CC(C)Oc1ccc(Oc2ccc3c(c2)c(C(=O)O)c(CC(=O)O)n3-c2ccc(OC3CCCC3)cc2)cc1 [Example 4:1, 2-Carboxymethyl-1-(4-cyclopentyloxyphenyl)-5-(4-isopropoxyphenoxy)-indole-3-carboxylic acid]	96%	–	–
–	89%	O=C(O)Cc1c(C(=O)O)c2cc(Oc3ccc(OC(F)(F)F)cc3)ccc2n1-c1ccc(OCc2ccccc2)cc1 [Example 2:1, 1-(4-Benzyloxyphenyl)-2-carboxymethyl-5-(4-trifluoromethoxyphenoxy)indole-3-carboxylic acid]	–	–	–
99%	–	O=C(O)Cc1c(C(=O)O)c2cc(Oc3ccc(OC(F)(F)F)cc3)ccc2n1-c1ccc(OC2CCCCC2)cc1 [Example 4:5, 2-Carboxymethyl-1-(4-cyclohexyloxyphenyl)-5-(4-trifluoromethoxyphenoxy)indole-3-carboxylic acid]	–	97%	–
98%	–	CC(C)Oc1ccc(Oc2ccc3c(c2)c(C(=O)O)c(CC(=O)O)n3-c2ccc(OCc3ccccc3C(F)(F)F)cc2)cc1 [Example 1:8, 2-Carboxymethyl-1-5-(4-isopropoxyphenoxy)-[4-(2-trifluoromethyl-benzyloxy)phenyl]indole-3-carboxylic acid]	96%	–	–
96%	–	CC(C)Oc1ccc(Oc2ccc3c(c2)c(C(=O)O)c(CC(=O)O)n3-c2ccc(Oc3ccc(Cl)cc3)cc2)cc1 [Example 3:3, 2-Carboxymethyl-1-[4-(4-chlorophenoxy)phenyl]-5-(4-isopropoxy-phenoxy)indole-3-carboxylic acid]	100%	–	–
